Reference: US6890969B2, “Polymer emulsion preservation using cationic compounds” (Air Products Polymers, L.P., priority 2000, dated 2005)
Where two headings read alike, the source gives them in different places.

Columns and labels:
GABL = GABL biochallenge test of preserved polymer emulsions (streak plate / RABIT), inoculations passed; type: cell-based, Gluconoacetobacter liquefaciens; details: for Inoculations Passed: PVOH-stabilized VAE emulsion, Tg 0 °C, <1000 ppm vinyl acetate; for preservative quality against GABL compared with cationic compounds (in words): common industrial biocides, CIT/MIT limited to 50 ppm, DBNPA to 100 ppm; for efficacy against GABL (in words): even at doses of 450 and 500 ppm; for preservative efficacy against GABL (in words): dosages similar to 200 ppm, failing immediately after the initial GABL inoculation
Description: GABL Inoculum Preparation
A recently isolated culture of GABL was grown on potato dextrose agar slants by inoculating the agar surface. The potato dextrose agar slants were incubated for 48-72 hours at 25° C. After this incubation period, GABL cells were harvested using quarter strength Ringers solution to wash the GABL colonies off of the agar surface. The washings from each slant were combined into one sterile, Erlenmeyer flask. The number of slants and the amount of quarter strength Ringers solution used to wash off the GABL colonies was adjusted during the procedure to obtain a final microbial viable count in the range of 10^8-10^10 CFU/mL.
Rapid Automated Bacterial Impedance Technique (RABIT): supplied by Microbiology International, manufactured by Don Whitley Scientific, Ltd.
RABIT utilizes the principal of impedance microbiology to detect and assess microbial activity in a given sample. Using the RABIT, microbial metabolism is monitored by measuring the amount of carbon dioxide produced by actively respiring microorganisms. The electrodes in the RABIT test cells are partially covered with alkaline agar containing potassium hydroxide. As inoculated test samples are monitored on the RABIT, carbon dioxide produced from microbial metabolism is absorbed by the alkaline agar resulting in a change in conductivity. Conductivity is monitored with time and the time to reach a pre-specified rate of reduction in conductivity is termed the time to detection (TTD). Therefore, the shorter the TTD, the higher the number of microorganisms present. Failure can be defined as three successive decreases in conductivity equal to or greater than a pre-specified value (−10 microSiemens is recommended by the manufacturer) at any time during the 72 hour RABIT monitoring period. Alternatively, failure can be defined as a pre-specified total change in conductivity.
Biochallenge Test Procedure
Samples (50 g each) of each test emulsion containing a test antimicrobial agent were inoculated with 1.0 mL of the GABL inoculum. After mixing well, the samples were then placed in a 30° C. incubator. After 1, 2, and 6 days of incubation each sample was streak plated onto potato dextrose agar to assess the level of surviving GABL microorganisms. The potato dextrose agar plates were incubated at 25° C. for 48-72 hours before assessing the growth. On the seventh day of incubation, each test emulsion sample was inoculated again with a freshly prepared GABL inoculum, mixed well, then placed back into the incubator. The samples were again streak plated onto potato dextrose agar after incubating for 1, 2, and 6 days since the second inoculation. On the fourteenth day after the test was initiated, the test emulsions were inoculated a third time with another freshly prepared GABL inoculum and then placed back into the incubator. The samples were again streak plated onto potato dextrose agar after 1, 2, 6, and 13 days of incubation since the third inoculation to assess surviving microorganisms. Test failure is defined as a microbial viable count >300 CFU/10 μL observed from the potato dextrose agar streak plate assessments.
Biochallenge Test Procedure Via the RABIT
A small amount of a microbial nutrient was added to each emulsion test sample (50 g) containing a test antimicrobial agent. The resulting samples were then inoculated with 1.0 mL of the GABL inoculum. After mixing well, an aliquot (5 g) of each test sample was placed into separate RABIT indirect conductivity tubes. The indirect conductivity tubes were then placed into the RABIT incubator modules set at 30° C. and the conductivity changes monitored for up to 72 hours. The remainder of each test sample was stored in a 30° C. incubator during the RABIT monitoring period. At the completion of the RABIT monitoring period, the aliquot samples were placed back into their respective sample containers. Each test sample was then re-inoculated with a freshly prepared GABL inoculum. […]

mixed bacterial pool = type: cell-based; details: PVOH-stabilized VAE emulsion Tg 0, <1000 ppm vinyl acetate
Description: The preservative efficacy of several cationic compounds in a poly(vinyl alcohol)-stabilized VAE copolymer emulsion (Tg=0) containing less than 1000 ppm vinyl acetate was assessed according to the following procedure:
Aeromonas hydrophilia, Alcaligenes faecalis, Corynebacterium ammoniagenes, Enterobacter aerogenes, Escherichia coli, Klebsiella pneumoniae, Pseudomonas aeruginosa, Proteus vulgaris, Providencia rettgeri, Pseudomonas stutzeri, Shewanella putrefaciens, Serratia liquefaciens, Acinetobacter baumannii, Burkholderia cepacia, Chryseobacterium meningosepticum, Sphingobacterium spiritivorum, Ralstonia pickettii, and GABL.
Mixed Bacterial Pool Inoculum Preparation
Each bacterial culture was individually grown on nutrient agar slants, except GABL was grown on potato dextrose agar slants, by inoculating the agar surfaces. The nutrient agar slants were incubated for 24-48 hours at 30° C. and the potato dextrose agar slants were incubated for 48-72 hours at 25° C. After this incubation period, the cells were harvested using quarter strength Ringers solution to wash the bacterial colonies off the agar surface. The washings from all of the slants were combined into one sterile, Erlenmeyer flask. The number of slants and the amount of Ringers Solution used to wash off the bacterial colonies is adjusted during the procedure to obtain a final mixed microbial viable count in the range of 10^8-10^10 CFU/mL.
Bacterial Biochallenge Test Procedure
The RABIT procedures were followed as described in Example 1, except the mixed bacterial pool inoculum was used to inoculate the test samples instead of the GABL inoculum.

Benzalkonium chloride [TPI ® 1717]
Inoculations Passed (GABL; biocide dosage 200 ppm active): 0
Inoculations Passed (GABL; biocide dosage 300 ppm active): 0

N#CCCC(Br)(C#N)CBr (stereo not shown) [DBDCB, 1,2-dibromo-2,4-dicyanobutane, reference compound]
Inoculations Passed (GABL; biocide dosage 450 ppm active): 0
preservative quality against GABL compared with cationic compounds (in words) (GABL): inferior preservatives
efficacy against GABL (in words) (GABL): ineffective

[H]/N=C(\N/C(=N/[H])NCCCCCCNC(=N)NC(=N)Nc1ccc(Cl)cc1)Nc1ccc(Cl)cc1 [chlorhexidine, reference compound]
preservative efficacy against GABL (in words) (GABL): ineffective

O=CCCCC=O [Glutaraldehyde, reference compound]
Inoculations Passed (GABL; biocide dosage 500 ppm active): 0
preservative quality against GABL compared with cationic compounds (in words) (GABL): inferior preservatives
efficacy against GABL (in words) (GABL): ineffective

CC(C)[C@H](N)C(=O)O [Valine]
Inoculations Passed (GABL; biocide dosage 1000 ppm active): 0

CCCCCCCCCCCCCCCC[n+]1ccccc1 [CPC, cetylpyridinium chloride, reference compound]
Inoculations Passed (mixed bacterial pool; active biocide dosage 300 ppm): 5
Inoculations Passed (mixed bacterial pool; active biocide dosage 400 ppm): 7
Inoculations Passed (GABL; biocide dosage 100 ppm active): 0
Inoculations Passed (GABL; biocide dosage 250 ppm active): 2
Inoculations Passed (GABL; biocide dosage 300 ppm active): 5

CCCCCCCCCC[N+](C)(C)CCCCCCCCCC.[Cl-] [BTC ® 1010, Didecyldimethylammonium chloride]
Inoculations Passed (GABL; biocide dosage 200 ppm active, listed as BTC 1010): 3

Tetrakis(hydroxymethyl) phosphonium sulfate [Tolcide ® PS]
Inoculations Passed (GABL; biocide dosage 500 ppm active): 0

CCCCCCCCCCCCCCCC[N+](C)(C)C.[Br-] [CTAB, cetyltrimethylammonium bromide]
Inoculations Passed (GABL; biocide dosage 300 ppm active): 1
preservative efficacy against GABL (in words) (GABL): ineffective

CC(=O)O.CC(=O)O.NC(=N\CCCCCC/N=C(N)/N=C(\N)Nc1ccc(Cl)cc1)/N=C(\N)Nc1ccc(Cl)cc1 [Chlorhexidine diacetate, reference compound]
Inoculations Passed (GABL; biocide dosage 400 ppm active): 0

N=C(NCCCCCCNC(=N)NC(=N)Nc1ccc(Cl)cc1)NC(=N)Nc1ccc(Cl)cc1.O=C(O)[C@H](O)[C@@H](O)[C@H](O)[C@H](O)CO.O=C(O)[C@H](O)[C@@H](O)[C@H](O)[C@H](O)CO [Chlorhexidine digluconate, reference compound]
Inoculations Passed (GABL; biocide dosage 250 ppm active): 0

N#CC(Br)(Br)C(N)=O [DBNPA, 2,2-dibromo-3-nitrilo-propionamide, reference compound]
Inoculations Passed (GABL; biocide dosage 100 ppm active): 0
preservative quality against GABL compared with cationic compounds (in words) (GABL): inferior preservatives
efficacy against GABL (in words) (GABL): ineffective

NCC(=O)O [Glycine]
Inoculations Passed (GABL; biocide dosage 500 ppm active): 0

CCCCCCCCCC[N+](C)(C)CCCCCCCCCC.[Cl-] [TPI ® 1716, Didecyldimethylammonium chloride]
Inoculations Passed (GABL; biocide dosage 100 ppm active): 0
Inoculations Passed (GABL; biocide dosage 200 ppm active, listed as TPI 1716): 2
Inoculations Passed (GABL; biocide dosage 300 ppm active): ≧5
